# In publication PMC5259778, “Candidate pheromone receptors of codling moth Cydia pomonella respond to pheromones and kairomones” (Scientific Reports, 2017):
# Assays:
# [1] = ref Scifinder, 2015; Chemspider; cited from earlier work
# CpomOR6a = assay: Single sensillum recordings, CpomOR6a expressed in Drosophila at1 OSNs; type: cell-based, Cydia pomonella; conditions: for Spike/s: 10 μg per stimulus; for response compared with the solvent: 10 μg doses, Mann-Whitney U Test, p < 0.05
# Description: (§1) To perform heterologous expression in D. melanogaster OSNs, CpomORs were amplified using primers in Table 2 and purified PCR products were cloned into the PCR8/GW/TOPO plasmid (Invitrogen) following the recommended protocol. Cassettes with inserts were then transferred from their PCR8/GW/TOPO plasmids to the destination vector (pUASg-HA.attB, constructed by E. Furger and J. Bischof, kindly provided by the Basler group, Zürich), using the Gateway LR Clonase II kit (Invitrogen). The integrity and orientation of inserts was confirmed by sequencing (Sanger sequencer, 3730xl). Transformant UAS-CpomOR3 and UAS-CpomOR1 lines were generated by Best Gene (Chino Hills, CA, USA), using the PhiC31 integrase system, while the transformant UAS-CpomOR6a line was generated in our labs. Briefly, recombinant pUASg-HA.attB-CpomOR plasmids were injected into embryos of a D. melanogaster line containing an attP insertion site within the third chromosome (genotype y1 M{vas-int.Dm}ZH-2A w*; M{3xP3-RFP.attP}ZH-86Fb), leading to non-random integration. To drive expression of CpomORs in at1 OSNs in place of the endogenous receptor Or67d, transformant UAS-CpomOR lines were crossed to the knock-in Or67d^GAL4 line (kindly provided by Barry Dickson) to generate double homozygous lines w^+;UAS-CpomOR; Or67d^GAL4. Additionally, to drive expression of CpomOR3 in ab3A OSNs, the UAS-CpomOR3 line was crossed to the Δhalo;Or22a-Gal4 mutant line[20][57]. To verify insertion of UAS-CpomORs constructs into the genome, gDNA was extracted and used as template in PCR with primers for the full ORF of CpomORs (Table 2).
# (§2) CpomOR1 and CpomOR6a expressed in at1 OSNs, and CpomOR3 expressed in ab3A OSNs, were tested through single sensillum recordings (SSR). Three to 8-day-old flies were immobilized in 100 μL pipette tips with only the top half of the head protruding. The left antenna of each insect was gently pushed with a glass capillary against a double-sided adhesive tape placed on a piece of glass. This piece of glass and the pipette tip were fixed with dental wax on a microscope slide. Electrolytically sharpened tungsten electrodes (Harvard Apparatus Ltd, Edenbridge, United Kingdom) were used to penetrate the insect´s body. The reference electrode was manually inserted in the right eye of the fly, while the recording electrode was manoeuvred with a DC-3K micromanipulator equipped with a PM-10 piezo translator (Märzhäuser Wetzler GmbH, Wetzler, Germany) and inserted at the base of the determined sensilla. Signals coming from the olfactory sensory neurons were amplified 10 times with a probe (INR-02, Syntech, Hilversum, the Netherlands), digitally converted through an IDAC-4-USB (Syntech) interface, and visualized and analysed with the software Autospike v. 3.4 (Syntech). A constant flow of 0.65 m/s of humidified air (charcoal-filtered) was delivered through a glass tube to the antenna. The panel of odorants was given to the insect by inserting pipettes containing a piece of filter paper with the correspondent stimulus in a lateral hole of the glass tube and puffing a flow of 2.5 mL of air during 0.5 s through the pipette. For CpomOR1 and CpomOR6a the panel of odorants was prepared by applying 10 μL of a solution of 1.0 μg/μL of the compounds in Supplementary Dataset S2 and Supplementary Dataset S3, for a total amount of 10 μg per stimulus. In the case of CpomOR3, a similar dilution process was used for the dose response experiments of ethyl-(E,Z)-2,4-decadienoate and methyl-(E,Z)-2,4-decadienoate, as well for dose response of experiments of codlemone acetate in CpomOR6a. Compounds were diluted from concentrations ranging from 0.01 ng/μL to 10 μg/μL in decadic steps, allowing reaching concentrations from 100 pg to 100 μg per stimulus when 10 μL of the dilution was applied in the piece of filter paper. […]
# CpomOR1 = assay: Single sensillum recordings, CpomOR1 expressed in Drosophila at1 OSNs; type: cell-based, Cydia pomonella; conditions: 10 μg per stimulus
# Description: as §1, §2
compound,measurement,setting,value
CC(C)(C)c1ccc(CCC=O)cc1 [bourgeonal],LogP,[1],3.486±0.245
same,Solubility (M),[1],"4,50E-04 M"
CC(C)c1ccc(O)cc1 [4-isopropyl phenol],LogP,[1],2.986±0.200
same,Solubility (M),[1],"0,015 M"
"C/C=C\CCCCCCCCCOC(C)=O [(Z)-10:12Ac, (Z)-10-dodecadien-1-yl acetate]",Spike/s,CpomOR6a; replicate 1,0 Spike/s
same,Spike/s,CpomOR6a; replicate 2,6 Spike/s
same,Spike/s,CpomOR6a; replicate 3,2 Spike/s
same,Spike/s,CpomOR6a; replicate 4,2 Spike/s
same,Spike/s,CpomOR6a; replicate 5,6 Spike/s
same,Spike/s,CpomOR6a; replicate 6,12 Spike/s
same,Spike/s,CpomOR6a; replicate 7,14 Spike/s
same,Spike/s,CpomOR6a; replicate 8,4 Spike/s
same,Spike/s,CpomOR6a; replicate 9,4 Spike/s
"C=C/C=C(\C)CCC=C(C)C [4,8-Dimethyl-1,(E)-3,7-nonatriene]",Spikes/s,CpomOR1; replicate 1,2 Spikes/s
same,Spikes/s,CpomOR1; replicate 2,-6 Spikes/s
same,Spikes/s,CpomOR1; replicate 3,2 Spikes/s
same,Spikes/s,CpomOR1; replicate 4,4 Spikes/s
same,Spikes/s,CpomOR1; replicate 5,-8 Spikes/s
CC(C)CCO [3-methyl-1-butanol],LogP,[1],1.192±0.187
same,Solubility (M),[1],"0,34 M"
"CCC/C=C\CCCCCCCOC(C)=O [(Z)-8:12Ac, (Z)-8-dodecadien-1yl acetate]",Spike/s,CpomOR6a; replicate 1,0 Spike/s
same,Spike/s,CpomOR6a; replicate 2,0 Spike/s
same,Spike/s,CpomOR6a; replicate 3,0 Spike/s
same,Spike/s,CpomOR6a; replicate 4,4 Spike/s
same,Spike/s,CpomOR6a; replicate 5,-2 Spike/s
same,Spike/s,CpomOR6a; replicate 6,22 Spike/s
same,Spike/s,CpomOR6a; replicate 7,32 Spike/s
same,Spike/s,CpomOR6a; replicate 8,6 Spike/s
same,Spike/s,CpomOR6a; replicate 9,-8 Spike/s
"CCCc1ccc(O)c(OC)c1 [dihydro eugenol, 2-methoxy-4-propylphenol]",LogP,[1],2.943±0.224
same,Solubility (M),[1],"6,00E-03 M"
CCC/C=C/CCCCCCCO [(E8)-12:OH],Spikes/s,CpomOR1; replicate 1,-2 Spikes/s
same,Spikes/s,CpomOR1; replicate 2,4 Spikes/s
same,Spikes/s,CpomOR1; replicate 3,0 Spikes/s
same,Spikes/s,CpomOR1; replicate 4,0 Spikes/s
same,Spikes/s,CpomOR1; replicate 5,2 Spikes/s
C=C(C)[C@@H]1CCC2=CC(=O)C[C@@H](C)[C@]2(C)C1 [(+)-nootkatone],LogP,[1],3.765±0.275
same,Solubility (M),[1],"2,40E-04 M"
NCCc1ccccc1 [phenylethylamine],LogP,[1],1.435±0.189
same,Solubility (M),[1],"0,085 M"
"C/C=C\C/C=C/CCCCCCCCOC(C)=O [(Z9,E12)-14:Ac]",Spikes/s,CpomOR1; replicate 1,2 Spikes/s
same,Spikes/s,CpomOR1; replicate 2,-4 Spikes/s
same,Spikes/s,CpomOR1; replicate 3,2 Spikes/s
same,Spikes/s,CpomOR1; replicate 4,-10 Spikes/s
same,Spikes/s,CpomOR1; replicate 5,0 Spikes/s
CC(=O)CCC=C(C)C [6-methyl-5-hepten-2-one],LogP,[1],1.947±0.238
same,Solubility,[1],0.052 M
O=Cc1ccc2c(c1)OCO2 [heliotropin],LogP,[1],1.050±0.302
COc1cc(C=O)ccc1O [vanillin],Solubility (M),[1],"0,024 M"
CCCCCO [1-pentanol],LogP,[1],1.348±0.176
same,Solubility (M),[1],"0,24 M"
"C/C=C/C=C\CCCCCCCOC(C)=O [(Z,E)-8,10:12Ac, (Z,E)-8,10-dodecadien-1yl acetate]",Spike/s,CpomOR6a; replicate 1,10 Spike/s
same,Spike/s,CpomOR6a; replicate 2,2 Spike/s
same,Spike/s,CpomOR6a; replicate 3,-4 Spike/s
same,Spike/s,CpomOR6a; replicate 4,8 Spike/s
same,Spike/s,CpomOR6a; replicate 5,0 Spike/s
same,Spike/s,CpomOR6a; replicate 6,18 Spike/s
same,Spike/s,CpomOR6a; replicate 7,26 Spike/s
same,Spike/s,CpomOR6a; replicate 8,40 Spike/s
same,Spike/s,CpomOR6a; replicate 9,10 Spike/s
C/C=C/CCCCCCCCCO [(E10)-12:OH],Spikes/s,CpomOR1; replicate 1,-2 Spikes/s
same,Spikes/s,CpomOR1; replicate 2,-2 Spikes/s
same,Spikes/s,CpomOR1; replicate 3,0 Spikes/s
same,Spikes/s,CpomOR1; replicate 4,-4 Spikes/s
same,Spikes/s,CpomOR1; replicate 5,2 Spikes/s
"C/C=C\C=C\CCCCCCCOC(C)=O [(E,Z)-8,10:12Ac, (E,Z)-8,10-dodecadien-1yl acetate]",response compared with the solvent,CpomOR6a,significantly activated
same,Spike/s,CpomOR6a; replicate 1,6 Spike/s
same,Spike/s,CpomOR6a; replicate 2,10 Spike/s
same,Spike/s,CpomOR6a; replicate 3,16 Spike/s
same,Spike/s,CpomOR6a; replicate 4,6 Spike/s
same,Spike/s,CpomOR6a; replicate 5,8 Spike/s
same,Spike/s,CpomOR6a; replicate 6,24 Spike/s
same,Spike/s,CpomOR6a; replicate 7,16 Spike/s
same,Spike/s,CpomOR6a; replicate 8,34 Spike/s
same,Spike/s,CpomOR6a; replicate 9,2 Spike/s
"C/C=C\C=C/CCCCCCCO [(Z8,Z10)-12:OH]",Spikes/s,CpomOR1; replicate 1,-2 Spikes/s
same,Spikes/s,CpomOR1; replicate 2,0 Spikes/s
same,Spikes/s,CpomOR1; replicate 3,0 Spikes/s
same,Spikes/s,CpomOR1; replicate 4,4 Spikes/s
same,Spikes/s,CpomOR1; replicate 5,12 Spikes/s
"C/C=C/C=C\CCCCCCCO [(Z8,E10)-12:OH]",Spikes/s,CpomOR1; replicate 1,0 Spikes/s
same,Spikes/s,CpomOR1; replicate 2,0 Spikes/s
same,Spikes/s,CpomOR1; replicate 3,6 Spikes/s
same,Spikes/s,CpomOR1; replicate 4,8 Spikes/s
same,Spikes/s,CpomOR1; replicate 5,-4 Spikes/s
CC/C=C/CCCCCCCCO [(E9)-12:OH],Spikes/s,CpomOR1; replicate 1,-4 Spikes/s
same,Spikes/s,CpomOR1; replicate 2,0 Spikes/s
same,Spikes/s,CpomOR1; replicate 3,2 Spikes/s
same,Spikes/s,CpomOR1; replicate 4,4 Spikes/s
same,Spikes/s,CpomOR1; replicate 5,-2 Spikes/s
CCCCCCCCCCCCO [1-dodecanol],Spikes/s,CpomOR1; replicate 1,-2 Spikes/s
same,Spikes/s,CpomOR1; replicate 2,4 Spikes/s
same,Spikes/s,CpomOR1; replicate 3,2 Spikes/s
same,Spikes/s,CpomOR1; replicate 4,-2 Spikes/s
same,Spikes/s,CpomOR1; replicate 5,2 Spikes/s
C=C/C(C)=C/CC=C(C)C [(E)-β-ocimene],Spikes/s,CpomOR1; replicate 1,2 Spikes/s
same,Spikes/s,CpomOR1; replicate 2,8 Spikes/s
same,Spikes/s,CpomOR1; replicate 3,0 Spikes/s
same,Spikes/s,CpomOR1; replicate 4,2 Spikes/s
same,Spikes/s,CpomOR1; replicate 5,4 Spikes/s
Dodecadien-1-yl acetate [12Ac],Spike/s,CpomOR6a; replicate 1,4 Spike/s
same,Spike/s,CpomOR6a; replicate 2,4 Spike/s
same,Spike/s,CpomOR6a; replicate 3,-2 Spike/s
same,Spike/s,CpomOR6a; replicate 4,6 Spike/s
same,Spike/s,CpomOR6a; replicate 5,10 Spike/s
same,Spike/s,CpomOR6a; replicate 6,6 Spike/s
same,Spike/s,CpomOR6a; replicate 7,0 Spike/s
same,Spike/s,CpomOR6a; replicate 8,12 Spike/s
same,Spike/s,CpomOR6a; replicate 9,-12 Spike/s
C=CC(=C)CC/C=C(\C)CCC=C(C)C [(E)-β-farnesene],Spikes/s,CpomOR1; replicate 1,0 Spikes/s
same,Spikes/s,CpomOR1; replicate 2,4 Spikes/s
same,Spikes/s,CpomOR1; replicate 3,2 Spikes/s
same,Spikes/s,CpomOR1; replicate 4,0 Spikes/s
same,Spikes/s,CpomOR1; replicate 5,2 Spikes/s
"C/C=C\C=C\CCCCCCCO [(E8,Z10)-12:OH]",Spikes/s,CpomOR1; replicate 1,-2 Spikes/s
same,Spikes/s,CpomOR1; replicate 2,-2 Spikes/s
same,Spikes/s,CpomOR1; replicate 3,0 Spikes/s
same,Spikes/s,CpomOR1; replicate 4,-2 Spikes/s
same,Spikes/s,CpomOR1; replicate 5,-2 Spikes/s
"C/C=C\C=C/CCCCCCCOC(C)=O [(Z,Z)-8,10:12Ac, (Z,Z)-8,10-dodecadien-1yl acetate]",response compared with the solvent,CpomOR6a,significantly activated
same,Spike/s,CpomOR6a; replicate 1,14 Spike/s
same,Spike/s,CpomOR6a; replicate 2,12 Spike/s
same,Spike/s,CpomOR6a; replicate 3,10 Spike/s
same,Spike/s,CpomOR6a; replicate 4,16 Spike/s
same,Spike/s,CpomOR6a; replicate 5,20 Spike/s
same,Spike/s,CpomOR6a; replicate 6,20 Spike/s
same,Spike/s,CpomOR6a; replicate 7,10 Spike/s
same,Spike/s,CpomOR6a; replicate 8,32 Spike/s
same,Spike/s,CpomOR6a; replicate 9,12 Spike/s
"CCC/C=C/CCCCCCCOC(C)=O [(E)-8:12Ac, (E)-8-dodecadien-1-yl acetate]",Spike/s,CpomOR6a; replicate 1,10 Spike/s
same,Spike/s,CpomOR6a; replicate 2,0 Spike/s
same,Spike/s,CpomOR6a; replicate 3,4 Spike/s
same,Spike/s,CpomOR6a; replicate 4,4 Spike/s
same,Spike/s,CpomOR6a; replicate 5,12 Spike/s
same,Spike/s,CpomOR6a; replicate 6,26 Spike/s
same,Spike/s,CpomOR6a; replicate 7,30 Spike/s
same,Spike/s,CpomOR6a; replicate 8,30 Spike/s
same,Spike/s,CpomOR6a; replicate 9,10 Spike/s
"C/C=C/CCCCCCCCCOC(C)=O [(E)-10:12Ac, (E)-10-dodecadien-1-yl acetate]",response compared with the solvent,CpomOR6a,significantly activated
same,Spike/s,CpomOR6a; replicate 1,26 Spike/s
same,Spike/s,CpomOR6a; replicate 2,26 Spike/s
same,Spike/s,CpomOR6a; replicate 3,28 Spike/s
same,Spike/s,CpomOR6a; replicate 4,60 Spike/s
same,Spike/s,CpomOR6a; replicate 5,34 Spike/s
same,Spike/s,CpomOR6a; replicate 6,36 Spike/s
same,Spike/s,CpomOR6a; replicate 7,50 Spike/s
same,Spike/s,CpomOR6a; replicate 8,66 Spike/s
same,Spike/s,CpomOR6a; replicate 9,26 Spike/s
CCCCCC(=O)OCCCC [butyl hexanoate],Spikes/s,CpomOR1; replicate 1,4 Spikes/s
same,Spikes/s,CpomOR1; replicate 2,-4 Spikes/s
same,Spikes/s,CpomOR1; replicate 3,2 Spikes/s
same,Spikes/s,CpomOR1; replicate 4,0 Spikes/s
same,Spikes/s,CpomOR1; replicate 5,-8 Spikes/s
